Measurements taken from patent publication US20200054651A1, “COMPOSITIONS AND METHODS FOR MODULATING PPP2R1A” (The Regents of the University of California, priority 2017, published 2020).

Experiments:
[1] = biological target: T1, ACAT1 C196 (Homo sapiens, UniProt P24752); test: isoTOP-ABPP after in situ treatment of 231MFP cells; type: binding; details: 100 μM, 4 h in 231MFP cells in situ
T1 construct: IsoTOP-ABPP analysis of DKM 2-90 treatment in 231MFP cells in situ; endogenous in cells; host or cells: 231MFP cells
T1 sequence (P24752 34-427): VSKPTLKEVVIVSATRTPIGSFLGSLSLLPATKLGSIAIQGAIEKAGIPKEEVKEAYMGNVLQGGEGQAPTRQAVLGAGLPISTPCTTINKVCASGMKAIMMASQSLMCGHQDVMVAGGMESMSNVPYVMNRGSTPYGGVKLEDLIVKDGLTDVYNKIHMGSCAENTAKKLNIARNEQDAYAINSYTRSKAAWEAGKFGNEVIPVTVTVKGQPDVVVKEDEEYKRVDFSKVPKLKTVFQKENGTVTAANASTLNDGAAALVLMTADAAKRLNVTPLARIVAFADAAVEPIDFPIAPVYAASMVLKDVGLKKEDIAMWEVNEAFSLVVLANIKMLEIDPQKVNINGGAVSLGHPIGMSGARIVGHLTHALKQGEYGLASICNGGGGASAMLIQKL
Procedure: (§1) IsoTOP-ABPP studies were performed using the methods described in “Nature 534(7608), 570-574 (2016)” by Backus K. M., et al. and “Nature 468(7325), 790-795 (2010)” by Weerapana E., et al. […] Then, IAyne (iodoacetamide-alkyne) labeling was performed for 1 hour at room temperature. CuAAC was used by sequential addition of tris(2-carboxyethyl)phosphine (1 mM), tris[(1-benzyl-1H-1,2,3-triazol-4-yl)methyl]amine (34 μM), copper (II) sulfate (1 mM), and biotin-linker-azide where the linker was functionalized with a TEV protease recognition sequence along with an isotopically light or heavy valine for treatment of control or treated proteome, respectively. After click reactions, proteomes were precipitated by centrifugation at 6500×g, washed in ice-cold methanol, combined in a 1:1 control/treated ratio, washed again, then denatured and re-solubilized by heating in 1.2% SDS/PBS to 80° C. for 5 minutes. Insoluble components were precipitated by centrifugation at 6500×g and soluble proteome was diluted in 0.2% SDS/PBS (5 ml). Labeled proteins were bound to avidin-agarose beads (170 μl re-suspended beads/sample) while rotating overnight at 4° C. Bead-linked proteins were enriched by washing three times each in PBS and water, then re-suspended in urea/PBS (6 M), reduced in TCEP (1 mM), alkylated with iodoacetamide (18 mM), then washed and re-suspended in urea/PBS (2 M), and finally trypsinized overnight with 0.5 μg/μl sequencing grade trypsin. Tryptic peptides were eluted off. Beads were washed in PBS (3 times) and water (3 times), washed in TEV buffer solution (water, TEV buffer, 100 μM dithiothreitol), and re-suspended in buffer with Ac-TEV protease and then incubated overnight. Peptides were diluted in water, acidified with formic acid (1.2 M), and prepared for analysis.
(§2) Peptides from all proteomic experiments were pressure-loaded onto an Agilent 600 series RP-HPLC system equipped with a capillary tubing (250 mm) packed with Aqua C18 reverse-phase resin (4 cm). The system was previously equilibrated with a gradient (0% B to 100% B over 10 minutes, 100% B for 5 minutes, then 0% B for 5 minutes; buffer A: 95:5 water:acetonitrile, 0.1% formic acid; buffer B: 80:20 acetonitrile:water, 0.1% formic acid). The samples were then attached using a MicroTee PEEK 360 μm fitting to a laser pulled column (13 cm) packed with Aqua C18 reverse-phase resin (10 cm) and strong-cation exchange resin (3 cm) for isoTOP-ABPP studies. Samples were analyzed using an Q Exactive Plus mass spectrometer using a 5-step Multidimensional Protein Identification Technology (MudPIT) program. The system was run using a gradient (5% B to 55% B; buffer A: 95:5 water:acetonitrile, 0.1% formic acid; buffer B: 80:20 acetonitrile:water, 0.1% formic acid), along with a salt bump feeding aqueous ammonium acetate (500 mM) at an increment of 0%, 25%, 50%, 80%, to 100%. Data was collected in data-dependent acquisition mode with dynamic exclusion enabled (60 sec). One full MS scan (400-1800 m/z) (MS1 scan) was conducted, followed by MS2 scan (ITMS) (15 times) of the most abundant ions. Heated capillary temperature was set to 200° C. and the nanospray voltage was set to 2.75 kV.
(§3) Data was extracted in the form of MS1 and MS2 files using Raw Extractor 1.9.9.2 and searched against the Uniprot […] database using ProLuCID search methodology in IP2 v.3, described in “J Proteomics 129:16-24 (2015)” by Xu T, et al. Cysteine residues were searched with a static modification for carboxyaminomethylation (+m/z 57.02146), up to two differential modifications for methionine oxidation, and either the light or heavy TEV tags (+m/z 464.28596 or +m/z 470.29977, respectively). Peptides were required to have at least one tryptic end and to contain the TEV modification. ProLUCID data was filtered through DTASelect to achieve a peptide false-positive rate below 1%. […]

[2] = biological target: T2, CLIC4 C35 (Homo sapiens, UniProt Q9Y696); test: as above; type: binding; details: 100 μM, 4 h in 231MFP cells in situ
T2 construct: IsoTOP-ABPP analysis of DKM 2-90 treatment in 231MFP cells in situ; endogenous in cells; host or cells: 231MFP cells
T2 sequence (Q9Y696 whole entry): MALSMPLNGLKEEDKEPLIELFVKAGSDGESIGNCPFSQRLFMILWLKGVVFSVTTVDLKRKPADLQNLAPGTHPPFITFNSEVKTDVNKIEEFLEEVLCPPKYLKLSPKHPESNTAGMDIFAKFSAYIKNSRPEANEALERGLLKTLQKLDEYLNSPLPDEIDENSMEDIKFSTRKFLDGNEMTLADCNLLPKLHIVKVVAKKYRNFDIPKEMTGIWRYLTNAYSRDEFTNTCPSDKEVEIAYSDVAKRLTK
Procedure: as §1, §2, §3

[3] = biological target: T3, SCP2 C307 (Homo sapiens, UniProt P22307); test: as above; type: binding; details: 100 μM, 4 h in 231MFP cells in situ
T3 construct: IsoTOP-ABPP analysis of DKM 2-90 treatment in 231MFP cells in situ; endogenous in cells; host or cells: 231MFP cells
T3 sequence (P22307 1-547): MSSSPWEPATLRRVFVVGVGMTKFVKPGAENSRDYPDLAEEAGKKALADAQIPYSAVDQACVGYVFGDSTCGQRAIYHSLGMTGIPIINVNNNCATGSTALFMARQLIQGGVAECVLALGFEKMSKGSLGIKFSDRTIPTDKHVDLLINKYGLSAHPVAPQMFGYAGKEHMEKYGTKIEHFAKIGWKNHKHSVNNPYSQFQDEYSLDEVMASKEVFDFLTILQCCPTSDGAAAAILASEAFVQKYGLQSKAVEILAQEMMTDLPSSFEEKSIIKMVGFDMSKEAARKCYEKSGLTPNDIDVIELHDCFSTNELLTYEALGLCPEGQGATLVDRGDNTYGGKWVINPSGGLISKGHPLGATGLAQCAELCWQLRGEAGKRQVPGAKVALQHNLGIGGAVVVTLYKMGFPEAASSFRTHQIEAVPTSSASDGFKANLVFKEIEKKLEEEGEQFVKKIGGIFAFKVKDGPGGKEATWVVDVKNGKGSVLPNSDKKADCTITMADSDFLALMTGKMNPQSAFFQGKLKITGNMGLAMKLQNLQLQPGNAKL
Procedure: as §1, §2, §3

[4] = biological target: T4, TXNDC17 C43 (Homo sapiens, UniProt Q9BRA2); test: as above; type: binding; details: 100 μM, 4 h in 231MFP cells in situ
T4 construct: IsoTOP-ABPP analysis of DKM 2-90 treatment in 231MFP cells in situ; endogenous in cells; host or cells: 231MFP cells
T4 sequence (Q9BRA2 1-123): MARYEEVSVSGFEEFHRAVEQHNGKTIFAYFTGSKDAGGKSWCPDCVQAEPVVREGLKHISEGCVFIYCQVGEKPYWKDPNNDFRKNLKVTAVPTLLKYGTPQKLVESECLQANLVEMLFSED
Procedure: as §1, §2, §3

[5] = system: HCC38 cells; test: HCC38 cell proliferation; type: cell-based; details: 10 μM, 48 h

Row | SMILES | isotopically light to heavy ratio, ACAT1 C196 [1] | isotopically light to heavy ratio, CLIC4 C35 [2] | isotopically light to heavy ratio, SCP2 C307 [3] | isotopically light to heavy ratio, TXNDC17 C43 [4] | cell proliferation [5]
1 | O=C(CCl)Nc1ccc2c(c1)OCCO2 [DKM 2-90, 2-Chloro-N-(2,3-dihydrobenzo[β][1,4]dioxin-6-yl)acetamide] | > 5 | > 5 | > 5 | > 5 | 
2 | CC1=C(CO)C(=O)O[C@@H]([C@@H](C)[C@H]2CC[C@H]3[C@@H]4C[C@H]5O[C@]56[C@@H](O)C=CC(=O)[C@]6(C)[C@H]4CC[C@]23C)C1 [withaferin A, reference compound] |  |  |  |  | impairs
